# Test results taken from article PMC6197744, “Triazolo[4,5-d]pyrimidines as Validated General Control Nonderepressible 2 (GCN2) Protein Kinase Inhibitors Reduce Growth of Leukemia Cells” (Computational and Structural Biotechnology Journal, 2018).
# Key:
# Assay in all cases: Broad kinase panel screen (split-luciferase)
# Type in all cases: binding
# [1] = biological target: T1, SLK (Homo sapiens, UniProt Q9H2G2)
# T1 construct: purchased Luceome Biotechnologies
# Method: (§1) Compound 2 was screened against a standard panel of 50 protein kinases by Luceome Biotechnologies (Tucson, AZ). In brief, Compound 2 was dissolved and diluted in DMSO to a concentration of 12.5 μM from a 10 mM stock solution. As a control, compound 2 was evaluated for false positive against split-luciferase. For kinase assays, each C-terminal half of firefly luciferase linked kinase (Cfluc-Kinase) was translated along with the coiled coil Fos attached to the N-terminal fragment (Nfluc) (Fos-Nfluc) using rabbit reticulocyte lysate at 30 °C for 90 min. 24 µL aliquot of this lysate containing 1 µL of either DMSO or Compound 2 (at a final concentration 0.5 μM) was incubated for 30 minutes at room temperature followed by 1 hour incubation in the presence of a kinase specific probe. Finally, 80 µL of luciferin assay reagent was added and luminescence was immediately measured on a luminometer. Compound 2 was screened in duplicate against each kinase.
# (§2) The % Inhibition and % Activity Remaining was calculated using the following equations: […]
# [2] = biological target: T2, SRC (Homo sapiens, UniProt P12931)
# T2 construct: purchased Luceome Biotechnologies
# Method: as §1, §2
# [3] = biological target: T3, SIK1/SNF1LK (Homo sapiens, UniProt P57059)
# T3 construct: purchased Luceome Biotechnologies
# Method: as §1, §2
# [4] = biological target: T4, PIM1 (Homo sapiens, UniProt P11309); conditions: PIM1, 0.5 uM
# T4 construct: purchased Luceome Biotechnologies
# Method: as §1, §2
# [5] = biological target: T5, AMPK-a1/AMPK (Homo sapiens, UniProt Q13131)
# T5 construct: purchased Luceome Biotechnologies
# Method: as §1, §2
# [6] = biological target: T6, EPHB2 (Homo sapiens, UniProt P29323); conditions: EPHB2, 0.5 uM
# T6 construct: purchased Luceome Biotechnologies
# Method: as §1, §2
# [7] = biological target: T7, EPHA5 (Homo sapiens, UniProt P54756); conditions: EPHA5, 0.5 uM
# T7 construct: purchased Luceome Biotechnologies
# Method: as §1, §2
# [8] = biological target: T8, MAPK14/p38a (Homo sapiens, UniProt Q16539)
# T8 construct: purchased Luceome Biotechnologies
# Method: as §1, §2
# [9] = biological target: T9, HCK (Homo sapiens, UniProt P08631)
# T9 construct: purchased Luceome Biotechnologies
# Method: as §1, §2
# [10] = biological target: T10, ACVR2A/ACVR2 (Homo sapiens, UniProt P27037); conditions: ACVR2A/ACVR2, 0.5 uM
# T10 construct: purchased Luceome Biotechnologies
# Method: as §1, §2
# [11] = biological target: T11, VEGFR2/KDR/FLK1 (Homo sapiens, UniProt P35968); conditions: VEGFR2/KDR/FLK1, 0.5 uM
# T11 construct: purchased Luceome Biotechnologies
# Method: as §1, §2
# [12] = biological target: T12, CAMK1D (Homo sapiens, UniProt Q8IU85)
# T12 construct: purchased Luceome Biotechnologies
# Method: as §1, §2
# [13] = biological target: T13, AKT3 (Homo sapiens, UniProt Q9Y243); conditions: AKT3, 0.5 uM
# T13 construct: purchased Luceome Biotechnologies
# Method: as §1, §2
# [14] = biological target: T14, MAP3K11/MLK3 (Homo sapiens, UniProt Q16584); conditions: MAP3K11/MLK3, 0.5 uM
# T14 construct: purchased Luceome Biotechnologies
# Method: as §1, §2
# [15] = biological target: T15, RSK2/RPS6KA3 (Homo sapiens, UniProt P51812); conditions: RSK2/RPS6KA3, 0.5 uM
# T15 construct: purchased Luceome Biotechnologies
# Method: as §1, §2
# [16] = biological target: T16, AAK1 (Homo sapiens, UniProt Q2M2I8); conditions: AAK1, 0.5 uM
# T16 construct: purchased Luceome Biotechnologies
# Method: as §1, §2
# [17] = biological target: T17, FLT1/VEGFR1 (Homo sapiens, UniProt P17948); conditions: FLT1/VEGFR1, 0.5 uM
# T17 construct: purchased Luceome Biotechnologies
# Method: as §1, §2
# [18] = biological target: T18, CDK5 (Homo sapiens, UniProt Q00535); conditions: CDK5, 0.5 uM
# T18 construct: purchased Luceome Biotechnologies
# Method: as §1, §2
# [19] = biological target: T19, ITK (Homo sapiens, UniProt Q08881)
# T19 construct: purchased Luceome Biotechnologies
# Method: as §1, §2
# [20] = biological target: T20, AKT1 (Homo sapiens, UniProt P31749); conditions: AKT1, 0.5 uM
# T20 construct: purchased Luceome Biotechnologies
# Method: as §1, §2
# [21] = biological target: T21, PKG1/PRKG1 (Homo sapiens, UniProt Q13976); conditions: PKG1/PRKG1, 0.5 uM
# T21 construct: purchased Luceome Biotechnologies
# Method: as §1, §2
# [22] = biological target: T22, CLK2 (Homo sapiens, UniProt P49760); conditions: CLK2, 0.5 uM
# T22 construct: purchased Luceome Biotechnologies
# Method: as §1, §2
# [23] = biological target: T23, MARK2 (Homo sapiens, UniProt Q7KZI7); conditions: MARK2, 0.5 uM
# T23 construct: purchased Luceome Biotechnologies
# Method: as §1, §2
# [24] = biological target: T24, MAP3K10 /MLK2 (Homo sapiens, UniProt Q02779); conditions: MAP3K10 /MLK2, 0.5 uM
# T24 construct: purchased Luceome Biotechnologies
# Method: as §1, §2
# [25] = biological target: T25, AURKC (Homo sapiens, UniProt Q9UQB9)
# T25 construct: purchased Luceome Biotechnologies
# Method: as §1, §2
# T11 sequence (P35968 20-1356): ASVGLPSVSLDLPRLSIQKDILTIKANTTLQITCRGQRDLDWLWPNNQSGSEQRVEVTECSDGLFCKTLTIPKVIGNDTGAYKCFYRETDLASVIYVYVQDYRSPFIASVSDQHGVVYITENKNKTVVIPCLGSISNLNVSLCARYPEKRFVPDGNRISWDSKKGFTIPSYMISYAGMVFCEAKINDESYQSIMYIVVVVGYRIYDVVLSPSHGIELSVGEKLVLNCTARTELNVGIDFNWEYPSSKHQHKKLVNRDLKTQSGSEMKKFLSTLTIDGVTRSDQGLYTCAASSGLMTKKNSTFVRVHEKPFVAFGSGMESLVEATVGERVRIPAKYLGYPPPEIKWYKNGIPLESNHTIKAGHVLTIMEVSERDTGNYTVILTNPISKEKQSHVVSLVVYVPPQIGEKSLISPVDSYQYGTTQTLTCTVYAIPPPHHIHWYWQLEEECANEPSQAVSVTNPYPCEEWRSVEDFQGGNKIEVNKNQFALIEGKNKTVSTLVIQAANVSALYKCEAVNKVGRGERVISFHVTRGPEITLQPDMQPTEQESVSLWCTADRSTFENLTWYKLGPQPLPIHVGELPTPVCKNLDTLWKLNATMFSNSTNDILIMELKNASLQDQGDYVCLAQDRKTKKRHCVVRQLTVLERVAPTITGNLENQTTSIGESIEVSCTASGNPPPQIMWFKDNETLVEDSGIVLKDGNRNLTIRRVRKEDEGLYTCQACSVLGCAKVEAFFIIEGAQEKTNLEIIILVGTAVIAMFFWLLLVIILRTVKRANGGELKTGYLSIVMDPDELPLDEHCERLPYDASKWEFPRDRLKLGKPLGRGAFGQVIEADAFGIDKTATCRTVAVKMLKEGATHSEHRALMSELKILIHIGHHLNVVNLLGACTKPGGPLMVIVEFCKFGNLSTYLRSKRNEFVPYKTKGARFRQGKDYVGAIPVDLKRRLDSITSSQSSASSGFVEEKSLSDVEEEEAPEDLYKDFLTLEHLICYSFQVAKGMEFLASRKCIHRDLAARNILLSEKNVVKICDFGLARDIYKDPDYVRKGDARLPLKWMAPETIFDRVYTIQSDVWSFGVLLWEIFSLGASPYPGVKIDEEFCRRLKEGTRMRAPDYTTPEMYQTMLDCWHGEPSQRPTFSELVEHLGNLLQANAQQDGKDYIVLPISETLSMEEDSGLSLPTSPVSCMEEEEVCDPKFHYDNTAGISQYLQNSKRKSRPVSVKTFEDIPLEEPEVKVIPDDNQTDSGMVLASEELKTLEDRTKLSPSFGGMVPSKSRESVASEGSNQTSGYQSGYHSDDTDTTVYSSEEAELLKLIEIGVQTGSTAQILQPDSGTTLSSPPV
# T15 sequence (P51812 whole entry): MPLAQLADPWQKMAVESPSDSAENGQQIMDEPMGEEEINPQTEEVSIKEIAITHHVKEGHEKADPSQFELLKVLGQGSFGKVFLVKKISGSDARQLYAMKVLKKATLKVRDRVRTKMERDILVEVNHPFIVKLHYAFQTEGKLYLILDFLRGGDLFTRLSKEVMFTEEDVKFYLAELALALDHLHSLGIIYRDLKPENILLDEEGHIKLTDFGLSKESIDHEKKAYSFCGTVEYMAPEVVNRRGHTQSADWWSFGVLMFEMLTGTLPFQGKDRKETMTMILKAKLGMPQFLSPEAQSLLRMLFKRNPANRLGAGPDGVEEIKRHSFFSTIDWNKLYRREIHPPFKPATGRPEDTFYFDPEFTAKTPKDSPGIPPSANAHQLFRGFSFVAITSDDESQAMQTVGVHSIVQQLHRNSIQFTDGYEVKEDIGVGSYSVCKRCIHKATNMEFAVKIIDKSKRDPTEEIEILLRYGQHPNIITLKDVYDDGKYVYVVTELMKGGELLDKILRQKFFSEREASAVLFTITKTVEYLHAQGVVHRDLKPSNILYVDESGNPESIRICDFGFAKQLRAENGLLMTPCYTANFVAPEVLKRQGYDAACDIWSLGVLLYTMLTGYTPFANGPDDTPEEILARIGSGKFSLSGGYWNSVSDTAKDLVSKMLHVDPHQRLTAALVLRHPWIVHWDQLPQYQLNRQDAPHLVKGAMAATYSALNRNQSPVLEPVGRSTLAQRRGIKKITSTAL
# T7 sequence (P54756 25-1037): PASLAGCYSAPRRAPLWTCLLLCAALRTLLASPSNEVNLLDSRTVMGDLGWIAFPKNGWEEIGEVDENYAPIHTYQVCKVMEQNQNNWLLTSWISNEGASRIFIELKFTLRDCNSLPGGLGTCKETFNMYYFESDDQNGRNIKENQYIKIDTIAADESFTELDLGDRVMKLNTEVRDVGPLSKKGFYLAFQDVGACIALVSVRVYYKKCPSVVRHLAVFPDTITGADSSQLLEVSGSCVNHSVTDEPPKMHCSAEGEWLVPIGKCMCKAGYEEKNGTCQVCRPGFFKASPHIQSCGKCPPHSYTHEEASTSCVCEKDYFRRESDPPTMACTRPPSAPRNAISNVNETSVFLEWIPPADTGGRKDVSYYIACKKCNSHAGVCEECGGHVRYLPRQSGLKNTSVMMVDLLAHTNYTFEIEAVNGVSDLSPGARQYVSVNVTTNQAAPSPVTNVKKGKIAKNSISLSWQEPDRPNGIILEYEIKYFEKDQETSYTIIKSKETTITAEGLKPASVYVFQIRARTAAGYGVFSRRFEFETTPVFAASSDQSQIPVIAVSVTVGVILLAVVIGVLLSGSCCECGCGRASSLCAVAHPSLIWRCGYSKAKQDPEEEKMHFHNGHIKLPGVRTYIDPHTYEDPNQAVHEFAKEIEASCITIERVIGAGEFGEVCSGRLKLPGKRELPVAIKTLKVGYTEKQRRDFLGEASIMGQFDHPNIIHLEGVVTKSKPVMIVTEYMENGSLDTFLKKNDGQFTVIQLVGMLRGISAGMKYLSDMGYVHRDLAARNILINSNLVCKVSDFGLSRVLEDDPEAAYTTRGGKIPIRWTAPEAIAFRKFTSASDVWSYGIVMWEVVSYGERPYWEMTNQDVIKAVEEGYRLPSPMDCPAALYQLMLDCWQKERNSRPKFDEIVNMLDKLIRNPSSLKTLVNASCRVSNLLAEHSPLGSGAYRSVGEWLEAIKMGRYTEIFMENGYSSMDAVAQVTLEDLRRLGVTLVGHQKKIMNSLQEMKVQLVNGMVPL
# T12 sequence (Q8IU85 whole entry): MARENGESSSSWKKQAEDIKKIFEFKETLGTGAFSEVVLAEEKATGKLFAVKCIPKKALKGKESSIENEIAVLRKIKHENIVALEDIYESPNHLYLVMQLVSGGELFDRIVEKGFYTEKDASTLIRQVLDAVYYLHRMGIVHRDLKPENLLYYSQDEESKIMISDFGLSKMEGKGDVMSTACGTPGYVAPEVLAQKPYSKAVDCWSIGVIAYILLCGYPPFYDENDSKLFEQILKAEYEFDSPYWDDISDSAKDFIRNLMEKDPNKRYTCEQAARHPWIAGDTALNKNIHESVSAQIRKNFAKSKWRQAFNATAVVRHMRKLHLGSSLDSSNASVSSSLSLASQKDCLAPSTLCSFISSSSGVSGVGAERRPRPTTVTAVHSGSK
# T25 sequence (Q9UQB9 whole entry): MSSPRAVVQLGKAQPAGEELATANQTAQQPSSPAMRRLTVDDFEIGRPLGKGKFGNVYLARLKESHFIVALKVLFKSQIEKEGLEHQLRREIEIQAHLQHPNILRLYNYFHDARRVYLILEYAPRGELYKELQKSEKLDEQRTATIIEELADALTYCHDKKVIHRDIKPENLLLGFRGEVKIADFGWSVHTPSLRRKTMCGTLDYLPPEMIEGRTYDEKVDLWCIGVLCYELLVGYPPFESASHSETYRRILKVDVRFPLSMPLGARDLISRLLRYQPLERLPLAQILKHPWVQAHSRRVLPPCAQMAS
# T18 sequence (Q00535 whole entry): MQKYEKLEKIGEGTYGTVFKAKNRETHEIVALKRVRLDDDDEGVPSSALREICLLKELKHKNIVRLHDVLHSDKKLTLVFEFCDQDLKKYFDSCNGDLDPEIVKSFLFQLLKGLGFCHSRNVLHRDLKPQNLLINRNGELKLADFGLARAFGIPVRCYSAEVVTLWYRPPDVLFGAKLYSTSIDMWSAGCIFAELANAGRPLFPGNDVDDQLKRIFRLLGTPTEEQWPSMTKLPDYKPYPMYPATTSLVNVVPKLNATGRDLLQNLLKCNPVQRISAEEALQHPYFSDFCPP
# T2 sequence (P12931 whole entry): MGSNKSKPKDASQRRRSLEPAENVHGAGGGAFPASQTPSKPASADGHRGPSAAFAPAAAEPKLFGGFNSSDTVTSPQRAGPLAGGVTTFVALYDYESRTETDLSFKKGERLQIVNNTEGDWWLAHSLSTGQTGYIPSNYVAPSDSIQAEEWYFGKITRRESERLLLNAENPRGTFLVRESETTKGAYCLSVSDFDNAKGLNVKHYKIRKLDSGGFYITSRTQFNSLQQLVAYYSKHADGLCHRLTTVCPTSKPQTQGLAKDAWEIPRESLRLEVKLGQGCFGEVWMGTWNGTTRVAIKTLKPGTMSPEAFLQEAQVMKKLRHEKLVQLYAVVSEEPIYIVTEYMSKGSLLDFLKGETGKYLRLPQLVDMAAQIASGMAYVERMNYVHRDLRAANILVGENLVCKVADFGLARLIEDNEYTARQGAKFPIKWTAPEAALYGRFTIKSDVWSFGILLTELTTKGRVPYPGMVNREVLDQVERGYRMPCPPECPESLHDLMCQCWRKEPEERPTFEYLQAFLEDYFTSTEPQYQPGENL
# T8 sequence (Q16539 whole entry): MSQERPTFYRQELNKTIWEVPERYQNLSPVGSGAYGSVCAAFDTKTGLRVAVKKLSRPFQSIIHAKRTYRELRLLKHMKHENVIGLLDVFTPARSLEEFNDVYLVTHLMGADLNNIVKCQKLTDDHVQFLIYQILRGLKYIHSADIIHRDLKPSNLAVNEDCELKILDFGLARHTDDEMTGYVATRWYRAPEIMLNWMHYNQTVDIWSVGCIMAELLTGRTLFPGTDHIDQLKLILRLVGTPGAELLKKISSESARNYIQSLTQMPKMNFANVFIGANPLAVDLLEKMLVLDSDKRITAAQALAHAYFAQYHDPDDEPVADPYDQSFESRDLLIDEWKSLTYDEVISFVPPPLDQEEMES
smiles,measurement,setting,value
"CCOc1ccc(-n2nnc3cnc(Nc4cnn(CC)c4)nc32)cc1 [Compound 2, 3-(4-Ethoxyphenyl)-N-(1-ethyl-1H-pyrazol-4-yl)-3H-[1,2,3]triazolo[4,5-d]pyrimidin-5-amine]",remaining activity at 0.5 µM,[1],98.7%
same,remaining activity at 0.5 µM,[2],99.1%
same,remaining activity at 0.5 µM,[3],99.9%
same,remaining activity at 0.5 µM,[4],93.4%
same,remaining activity at 0.5 µM,[5],100%
same,remaining activity at 0.5 µM,[6],97.7%
same,remaining activity at 0.5 µM,[7],97.8%
same,remaining activity at 0.5 µM,[8],100%
same,remaining activity at 0.5 µM,[9],96%
same,remaining activity at 0.5 µM,[10],100%
same,remaining activity at 0.5 µM,[11],77.1%
same,remaining activity at 0.5 µM,[12],92.9%
same,remaining activity at 0.5 µM,[13],100%
same,remaining activity at 0.5 µM,[14],100%
same,remaining activity at 0.5 µM,[15],89.9%
same,remaining activity at 0.5 µM,[16],73.5%
same,remaining activity at 0.5 µM,[17],51.7%
same,remaining activity at 0.5 µM,[18],94.4%
same,remaining activity at 0.5 µM,[19],89.9%
same,remaining activity at 0.5 µM,[20],98.4%
same,remaining activity at 0.5 µM,[21],96%
same,remaining activity at 0.5 µM,[22],93%
same,remaining activity at 0.5 µM,[23],99.3%
same,remaining activity at 0.5 µM,[24],96.7%
same,remaining activity at 0.5 µM,[25],98.7%
